From patent US20070249603A1, “3-Arylsulfonyl-Quinolines as 5-Ht6 Receptor Antagonists for the Treatment of Cns Disorders” (priority 2004, published 2007) come the findings set out here.

The experiment concerns the target T1, human cloned 5-HT6 receptors (Homo sapiens, UniProt P50406).
T1 construct: expressed in transfected cells; host or cells: HeLa cells expressing cloned 5-HT6 receptor (membranes)
As to the kind of experiment: Cyclase assay (cAMP production in membranes of HeLa 5HT6 cells, antagonism of 5-HT). The experiment is classed as biochemical. As to conditions: antagonist potency, 5-HT at 4×EC50, functional Ki by Cheng-Prusoff from IC50, read-out: fpKi (negative log10 of the molar functional Ki) (converted). As for the experimental part: Compounds of the invention may be tested for in vitro biological activity in accordance with the following cyclase assay:
0.5 μl of test compound in 100% dimethylsulfoxide (DMSO) was added to a white, solid 384 well assay plate (for dose response measurements the top of the concentration range is 7.5 μM final). […]
cAMP production was then measured using the DiscoveRx™ HitHunter™ chemiluminescence cAMP assay kit (DiscoveRx Corporation, 42501 Albrae Street, Fremont, Calif. 94538; Product Code: 90-0004L) or any other suitable cAMP measurement assay.
IC50 values were estimated from arbitrary designated unit (ADU) measurements from a Perkin Elmer Viewlux instrument using a four parameter logistic curve fit within EXCEL (Bowen, W. P. and Jerman, J. C. (1995), Nonlinear regression using spreadsheets. Trends in Pharmacol. Sci., 16, 413-417). Functional Ki values were calculated using the method of Cheng, Y. C. and Prussof, W. H. (Biochemical Pharmacol (1973) 22 3099-3108). pI50 and fpKi are the negative log10 of the molar IC50 and functional Ki respectively.
(cAMP levels reflect the balance of adenylyl cyclase and phosphodiesterase activity.)

Molecules are shown by their SMILES. Where a name gives a salt, the structure may show the parent alone.

T1 sequence (P50406 whole entry): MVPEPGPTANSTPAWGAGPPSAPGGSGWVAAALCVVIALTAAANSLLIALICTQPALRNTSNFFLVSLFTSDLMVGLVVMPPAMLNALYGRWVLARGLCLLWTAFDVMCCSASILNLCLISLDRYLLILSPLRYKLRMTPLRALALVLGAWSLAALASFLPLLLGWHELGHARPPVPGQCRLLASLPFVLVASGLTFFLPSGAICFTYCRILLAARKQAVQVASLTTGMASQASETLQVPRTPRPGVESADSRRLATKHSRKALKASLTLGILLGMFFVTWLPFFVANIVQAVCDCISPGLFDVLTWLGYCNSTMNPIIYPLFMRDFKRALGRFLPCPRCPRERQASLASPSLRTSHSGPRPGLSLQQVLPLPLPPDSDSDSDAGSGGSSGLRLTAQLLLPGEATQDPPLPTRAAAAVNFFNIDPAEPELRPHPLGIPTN

Usually Ki stands for a measure of affinity in units of concentration, obtained from inhibition or displacement. Regarding `CN(C)C1CCN(c2ccc(I)c3cc(S(=O)(=O)c4ccccc4)cnc23)CC1` [Example 13, 1-[5-Iodo-3-(phenylsulfonyl)-8-quinolinyl]-N,N-dimethyl-4-piperidinamine hydrochloride], the inhibitory constant (Ki) was 158 nM.
